Results taken from BindingDB's records for patent US20240124439 (Pfizer, 2024).

Target: T1, Tyrosine-protein kinase ITK/TSK (Homo sapiens, UniProt Q08881)
T1 sequence (Q08881 whole entry): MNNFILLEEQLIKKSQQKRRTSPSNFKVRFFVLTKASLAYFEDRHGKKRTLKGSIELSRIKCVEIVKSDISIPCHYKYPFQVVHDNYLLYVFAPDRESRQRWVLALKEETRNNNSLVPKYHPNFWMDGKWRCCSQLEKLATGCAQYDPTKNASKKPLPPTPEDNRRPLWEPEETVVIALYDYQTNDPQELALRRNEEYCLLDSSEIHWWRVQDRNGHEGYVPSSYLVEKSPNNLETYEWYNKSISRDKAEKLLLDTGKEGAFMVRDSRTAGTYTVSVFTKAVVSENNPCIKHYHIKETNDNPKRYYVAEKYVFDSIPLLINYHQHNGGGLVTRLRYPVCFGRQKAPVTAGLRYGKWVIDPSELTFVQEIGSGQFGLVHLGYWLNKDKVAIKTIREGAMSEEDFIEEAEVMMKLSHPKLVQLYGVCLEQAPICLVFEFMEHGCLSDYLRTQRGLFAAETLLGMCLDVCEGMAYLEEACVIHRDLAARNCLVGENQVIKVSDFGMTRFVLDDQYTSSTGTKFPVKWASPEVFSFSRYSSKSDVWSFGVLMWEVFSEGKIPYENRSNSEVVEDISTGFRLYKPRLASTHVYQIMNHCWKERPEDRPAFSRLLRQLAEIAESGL
Test: ITK Enzyme Assay
Procedure: 1.0 M HEPES Buffer pH 7.5 solution was prepared as follows: 238.3 g HEPES free acid (Sigma) and 800 mL of water were combined, and the mixture was stirred until complete dissolution. The pH was adjusted to 7.5 via titration with 5N NaOH and the volume adjusted to 1000 mL. The solution was filtered and sterilized.ITK assay buffer was prepared as follows: 50 mL of HPLC-grade water was treated with 2 mL of 1.0 M HEPES Buffer, 500 μL of 2% Gelatin (Sigma), 1.0 mL of aqueous MgCl2 solution (1.0 M), and 1.0 mL of aqueous glutathione solution (0.5 M), and the solution was mixed. The solution was brought to 99 mL in a graduated cylinder by addition of water and sterilized through a 0.2 μm filter. 0.1 mL of Brij-35 Surfact-Amps Detergent Solution (10% w/v aqueous solution, ThermoFisher) and 1.0 mL of ATP (Teknova,100 mM) were added and the solution was mixed.Preparation of 1.33 ITK enzyme solution was as follows: 49.99 mL of ITK assay buffer was treated with 4.1 μL of ITK enzyme (ITK FL (N-Flag and C-His tagged, […]) Lake Pharma, 0.25 mg/ml in a buffer containing 25 mM Tris pH 7.8, 150 mM NaCl, 10% glycerol and 2 mM TCEP) and the mixture was gently agitated. The resulting solution was stored on ice. 30 Minutes prior to use, the enzyme solution was removed from ice and equilibrated to RT by incubation in a RT water bath.

Compound `CC(C)(C(=O)Nc1cnc2[nH]c(-c3n[nH]c4c3C[C@@H]3C[C@]3(C)C4)nc2c1)N1CCOCC1` [US20240124439, Example 16] has an IC50 of 747 nM.

Work on `CCN(C(=O)[C@H](C)C1CCOCC1)c1cnc2[nH]c(-c3n[nH]c4c3CCC(C)(C)C4)nc2c1` [US20240124439, Example 18] yielded an IC50 of 28 nM.

For `CN(C(=O)CC1CC2(C1)CC(F)(F)C2)c1cnc2nc(-c3n[nH]c4c3C[C@@H]3C[C@]3(C)C4)[nH]c2c1` [US20240124439, Example 54], the IC50 was 62 nM.

`C[C@H](C(=O)N(C)c1cnc2[nH]c(-c3n[nH]c4c3C[C@@H]3C[C@]3(C)C4)nc2c1)N1CCOCC1` [US20240124439, Example 26] showed an IC50 of 136 nM.

With `C[C@@H](C(=O)N(C)c1cnc2[nH]c(-c3n[nH]c4c3CCC(C)(C)C4)nc2c1)N1CCOCC1` [US20240124439, Example 14] the IC50 was 147 nM.

`CCc1nc2[nH]c(-c3n[nH]c4c3C[C@@H]3C[C@]3(C)C4)nc2cc1N(C)C(=O)CN1CCOCC1` [US20240124439, Example 37] showed an IC50 of 147 nM.

`C[C@@H](C(=O)Nc1ccc2[nH]c(-c3n[nH]c4c3CCC(C)(C)C4)nc2c1)N1CCOCC1` [US20240124439, Example 33] showed an IC50 of 2000 nM.

In the case of `CN(C(=O)CC1CC2(C1)CC2(F)F)c1cnc2nc(-c3n[nH]c4c3C[C@@H]3C[C@]3(C)C4)[nH]c2c1` (stereo not given in full) [US20240124439, Example 50], the IC50 is reported as 33 nM.

Compound `CN(C(=O)CC1CC(F)(F)C1)c1cnc2nc(-c3n[nH]c4c3C[C@@H]3C[C@]3(C)C4)[nH]c2c1` [US20240124439, Example 48] has an IC50 of 66 nM.

For `CN(C(=O)CC1CC2(CCC2)C1)c1cnc2nc(-c3n[nH]c4c3C[C@@H]3C[C@]3(C)C4)[nH]c2c1` [US20240124439, Example 49], the IC50 was 25 nM.
